Molecular target: T1, OGA (Homo sapiens, UniProt O60502)
T1 construct: HEK293 cells inducible for P301L mutant human Tau (isoform 2N4R) were established at Janssen; endogenous in cells; host or cells: HEK293 cells inducible for P301L mutant human Tau (2N4R)
T1 sequence (O60502 1-916): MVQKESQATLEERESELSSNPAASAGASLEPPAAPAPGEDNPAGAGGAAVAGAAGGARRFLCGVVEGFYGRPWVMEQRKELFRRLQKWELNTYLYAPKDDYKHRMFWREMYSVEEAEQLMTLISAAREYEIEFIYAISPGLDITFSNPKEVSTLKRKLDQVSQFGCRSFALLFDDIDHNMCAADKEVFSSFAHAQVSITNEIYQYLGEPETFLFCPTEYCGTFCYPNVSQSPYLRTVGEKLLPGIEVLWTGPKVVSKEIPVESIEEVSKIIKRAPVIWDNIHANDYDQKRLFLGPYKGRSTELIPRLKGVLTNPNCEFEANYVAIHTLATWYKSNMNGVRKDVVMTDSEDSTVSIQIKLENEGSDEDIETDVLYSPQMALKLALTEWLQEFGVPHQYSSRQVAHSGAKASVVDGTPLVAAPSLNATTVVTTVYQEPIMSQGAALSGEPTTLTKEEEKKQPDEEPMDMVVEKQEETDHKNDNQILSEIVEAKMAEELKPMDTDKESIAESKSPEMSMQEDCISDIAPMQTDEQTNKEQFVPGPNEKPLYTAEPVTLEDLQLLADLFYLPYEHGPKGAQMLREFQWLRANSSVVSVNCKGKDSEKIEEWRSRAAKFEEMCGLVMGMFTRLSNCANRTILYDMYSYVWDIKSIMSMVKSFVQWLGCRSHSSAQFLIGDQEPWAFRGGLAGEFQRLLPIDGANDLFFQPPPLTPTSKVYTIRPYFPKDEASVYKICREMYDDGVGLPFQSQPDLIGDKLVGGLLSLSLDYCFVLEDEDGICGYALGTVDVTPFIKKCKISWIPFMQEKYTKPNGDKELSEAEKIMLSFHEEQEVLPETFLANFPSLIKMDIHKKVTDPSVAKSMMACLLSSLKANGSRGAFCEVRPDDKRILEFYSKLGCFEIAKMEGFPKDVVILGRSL
Assay: OGA cellular assay (ICC detection of O-GlcNAcylated proteins in HEK293 cells inducible for P301L mutant human Tau)
Type: cell-based
Details: 6 hours incubation; for Emax: HEK293, HEK293 cells inducible for P301L mutant human Tau, maximum = Thiamet G 200 uM; for EC50: HEK293 cells inducible for P301L mutant human Tau, read-out: Cellular hOGA, pEC50 (converted)
Summary of the method: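 HEK293 cells with inducible P301L 2N4R Tau, seeded in low-glucose medium, were exposed to compounds for 6 hours (0.2% DMSO), then PFA-fixed and stained with CTD110.6. Imaging intensity at 488 nm measured O-GlcNAcylation, with Hoechst nuclei counts for toxicity. IC50s came from non-linear regression, with Thiamet G at 200 uM as maximum inhibition.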

| Emax [%] | EC50 [nM] | SMILES |
| --- | --- | --- |
| 82 | 50.1 | Cc1cc(OC2CCN([C@H](C)c3nc4c(cc3F)OCCO4)CC2)cc(C)n1 (single isomer, unassigned) [Compound 148] |
| 92 | 39.8 | Cc1ncc(OC2CCN(C(C)c3nc4c(cc3F)CCO4)CC2)cn1 (centres unmarked) [Compound 95] |
| 81 | 10 | Cc1cc(OC2CCN([C@H](C)c3nc4c(cc3F)CCO4)CC2)cc(C)n1 (single isomer, unassigned) [Compound 144] |
| 86 | 31.6 | Cc1cc(OC2CCN([C@@H](C)c3nc4nc(C)sc4cc3F)CC2)cc(C)n1 (single isomer, unassigned) [Compound 83] |
